# According to paper PMC12171880, “Selectivity and Safety Characterization of a Xanthine–Imidazothiazole Lead Structure: a Novel Tryptophan Hydroxylase Inhibitor of Peripheral Serotonin Synthesis” (ACS Pharmacology & Translational Science, 2025):
# pIC50: −log10 of the molar value.
# Legend:
# human recombinant TPH1 = target: T1, human recombinant TPH1 (Homo sapiens, UniProt P17752); experiment: TPH1 enzymatic activity assay (fluorescence, 96-well); assay type: biochemical
# T1 construct: Full-length human TPH1 and TPH2 (UniProt entries P17752 and Q8IWU9); MBP (N); made in house
# T1 sequence (P17752 1-444): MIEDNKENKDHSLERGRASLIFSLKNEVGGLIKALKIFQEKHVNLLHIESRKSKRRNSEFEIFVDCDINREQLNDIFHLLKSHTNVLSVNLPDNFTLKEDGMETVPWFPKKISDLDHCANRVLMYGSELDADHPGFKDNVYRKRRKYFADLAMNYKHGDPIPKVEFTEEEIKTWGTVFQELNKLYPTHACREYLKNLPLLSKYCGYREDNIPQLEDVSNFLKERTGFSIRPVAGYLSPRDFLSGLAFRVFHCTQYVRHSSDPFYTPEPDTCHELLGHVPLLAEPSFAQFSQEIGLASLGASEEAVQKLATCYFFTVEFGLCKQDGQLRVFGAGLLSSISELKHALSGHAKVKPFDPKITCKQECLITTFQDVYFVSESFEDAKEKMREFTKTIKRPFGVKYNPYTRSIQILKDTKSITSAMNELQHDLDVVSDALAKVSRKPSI
# human recombinant PAH = target: T2, human recombinant PAH (Homo sapiens, UniProt P00439); experiment: PAH enzymatic activity assay (fluorescence, 96-well); assay type: biochemical
# T2 construct: expression vectors for full-length human PAH (UniProt entry P00439); made in house; host or cells: E. coli T7 Express (NEB) with pRARE2
# T2 sequence (P00439 1-452): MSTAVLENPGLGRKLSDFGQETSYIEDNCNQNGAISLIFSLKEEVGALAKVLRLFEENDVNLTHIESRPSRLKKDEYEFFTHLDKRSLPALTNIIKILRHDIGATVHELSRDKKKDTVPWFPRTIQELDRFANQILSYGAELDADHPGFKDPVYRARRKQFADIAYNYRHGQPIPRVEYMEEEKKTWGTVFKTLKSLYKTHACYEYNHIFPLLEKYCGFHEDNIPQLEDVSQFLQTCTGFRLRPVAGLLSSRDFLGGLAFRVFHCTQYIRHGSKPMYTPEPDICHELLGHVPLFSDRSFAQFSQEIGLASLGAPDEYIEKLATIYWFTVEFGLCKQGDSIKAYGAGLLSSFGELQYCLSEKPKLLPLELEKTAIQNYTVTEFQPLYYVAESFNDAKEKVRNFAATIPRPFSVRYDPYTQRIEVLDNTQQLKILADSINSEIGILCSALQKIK
# recombinant human TH = target: T3, recombinant human TH (Homo sapiens, UniProt P07101); experiment: TH enzymatic activity assay (fluorescence, 96-well); assay type: biochemical
# T3 construct: For purification of MBP-tagged full-length PAH and TH; made in house; host or cells: E. coli T7 Express (NEB) with pRARE2
# Method: The TH enzymatic activity assay was performed using a 96-well plate format (Greiner). […] To initiate the reaction, L-Tyr (Fluka) was added (final concentration, 30 μM). The assay contained positive control samples (complete reaction mix, no inhibitor test compound), negative control samples (reaction mix without BH4), and an additional L-Tyr control (reaction mix without BH4, spiked with 25.5 μM or 27 μM L-Tyr) to measure the progression of the enzymatic reaction. All samples were measured in technical triplicates. The TH assay was performed at RT for 30 min. Depletion of the reaction substrate (L-Tyr) was continuously monitored at 240 s intervals by fluorescence measurements (ex.280 nm/em.306 nm) for 12 min using a Tecan Infinite 200 plate reader.
# Negative control values (no enzyme or no substrate) were deducted from the positive control (full enzyme activity) and test compound values. Subsequently, the data were normalized (Pos. Ctr. = 100% of the enzyme activity). The results were further analyzed with GraphPad Prism 9 using the nonlinear regression model: log(inhibitor) vs. response−variableslope(fourparameters) which fits the following equation to the data: Y=Bottom+(Top−Bottom)/(1+10^((logIC50−X)×HillSlope))
# The IC50 values were calculated from three independent experiments and are given as the mean ± SD.
# [1] = system: 75 human receptors, enzymes, and ion channels; set-up: method as in EMA/508026/2017; settings: ref EMA/508026/2017; cited from earlier work
# human recombinant TPH2 = target: T4, human recombinant TPH2 (Homo sapiens, UniProt Q8IWU9); experiment: TPH2 enzymatic activity assay (fluorescence, 96-well); assay type: biochemical
# T4 construct: Full-length human TPH1 and TPH2 (UniProt entries P17752 and Q8IWU9); MBP (N); made in house
# T4 sequence (Q8IWU9 1-490): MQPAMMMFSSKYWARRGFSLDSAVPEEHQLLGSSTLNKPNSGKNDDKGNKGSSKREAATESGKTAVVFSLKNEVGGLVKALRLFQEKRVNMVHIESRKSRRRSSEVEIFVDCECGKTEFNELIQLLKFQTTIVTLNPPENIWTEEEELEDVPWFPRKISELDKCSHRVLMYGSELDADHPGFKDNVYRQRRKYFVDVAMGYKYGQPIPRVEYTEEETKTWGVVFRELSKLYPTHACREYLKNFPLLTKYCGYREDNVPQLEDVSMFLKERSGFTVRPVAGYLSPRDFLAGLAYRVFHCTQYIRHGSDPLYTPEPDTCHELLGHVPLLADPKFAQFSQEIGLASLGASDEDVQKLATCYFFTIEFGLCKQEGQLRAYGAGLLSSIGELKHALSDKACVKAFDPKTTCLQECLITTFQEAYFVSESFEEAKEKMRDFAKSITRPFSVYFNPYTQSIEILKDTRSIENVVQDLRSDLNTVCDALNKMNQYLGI
# A3 receptor = system: A3 receptor; set-up: method as in EMA/508026/2017; settings: 10 μM; ref EMA/508026/2017; cited from earlier work
# 5-HT1B receptor = system: 5-HT1B receptor; set-up: method as in EMA/508026/2017; settings: 10 μM; ref EMA/508026/2017; cited from earlier work
# 5-HT2A receptor = system: 5-HT2A receptor; set-up: method as in EMA/508026/2017; settings: 10 μM; ref EMA/508026/2017; cited from earlier work
# [2] = 10 nM to 30 μM, 175 μM L-Phe, 10 μM BH4
# T3 sequence (P07101 whole entry): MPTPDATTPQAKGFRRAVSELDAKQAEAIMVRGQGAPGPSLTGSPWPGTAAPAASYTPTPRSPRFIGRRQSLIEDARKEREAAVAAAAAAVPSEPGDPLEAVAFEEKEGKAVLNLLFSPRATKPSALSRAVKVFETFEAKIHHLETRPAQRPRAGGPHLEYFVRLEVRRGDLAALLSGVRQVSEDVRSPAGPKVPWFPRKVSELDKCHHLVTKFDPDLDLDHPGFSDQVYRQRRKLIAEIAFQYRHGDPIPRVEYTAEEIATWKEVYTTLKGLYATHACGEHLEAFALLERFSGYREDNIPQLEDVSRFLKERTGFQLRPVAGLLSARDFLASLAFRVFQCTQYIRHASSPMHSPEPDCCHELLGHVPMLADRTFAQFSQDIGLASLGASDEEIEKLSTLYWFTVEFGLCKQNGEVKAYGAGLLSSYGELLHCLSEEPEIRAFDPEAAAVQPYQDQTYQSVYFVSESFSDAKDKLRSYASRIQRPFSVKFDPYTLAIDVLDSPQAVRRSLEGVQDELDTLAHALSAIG
smiles,measurement,setting,value
"CCOC(=O)[C@@H](N)Cc1ccc(-c2cc(O[C@H](c3ccc(Cl)cc3-n3ccc(C)n3)C(F)(F)F)nc(N)n2)cc1 [LX1606, Telotristat ethyl]",pIC50,"human recombinant TPH1; 3 nM to 10 μM, 15 μM L-Trp, 20 μM BH4",5.84
same,Mean PAH activity [%],human recombinant PAH; 10 nM,96.86%
same,pIC50,human recombinant PAH; [2],5.10
same,Mean PAH activity [%],human recombinant PAH; 30 nM,97.35%
same,Mean PAH activity [%],human recombinant PAH; 300 nM,94.55%
same,Mean PAH activity [%],human recombinant PAH; 1 μM,91.16%
same,Mean PAH activity [%],human recombinant PAH; 3 μM,64.20%
same,Mean PAH activity [%],human recombinant PAH; 10 μM,37.02%
same,Mean PAH activity [%],human recombinant PAH; 30 μM,33.74%
same,"PAH activity, not reduced below",human recombinant PAH; highest tested concentration (30 μM),≥ 30%
same,pIC50,human recombinant PAH; supplementary CSV,5.10
same,Mean TH activity [%],recombinant human TH; 10 nM,94.16%
same,Mean TH activity [%],recombinant human TH; 30 nM,93.57%
same,Mean TH activity [%],recombinant human TH; 100 nM,94.52%
same,Mean TH activity [%],recombinant human TH; 300 nM,91.31%
same,Mean TH activity [%],recombinant human TH; 1 μM,96.27%
same,Mean TH activity [%],recombinant human TH; 3 μM,96.83%
same,Mean TH activity [%],recombinant human TH; 10 μM,87.53%
same,Mean TH activity [%],recombinant human TH; 30 μM,71.72%
same,reduction of TH activity compared to the positive control,recombinant human TH; two highest concentrations (10 and 30 μM),≤ 30%
same,number of 75 receptors with over 50% of the activity inhibited,[1],16
"Cc1ccn(-c2cc(Cl)ccc2[C@@H](Oc2cc(-c3ccc(C[C@H](N)C(=O)O)cc3)nc(N)n2)C(F)(F)F)n1 [LP778902, Telotristat]",Mean TPH1 activity [%],human recombinant TPH1; 3 nM,99.75%
same,Mean TPH1 activity [%],human recombinant TPH1; 10 nM,100.85%
same,Mean TPH1 activity [%],human recombinant TPH1; 30 nM,101.72%
same,Mean TPH1 activity [%],human recombinant TPH1; 100 nM,100.00%
same,Mean TPH1 activity [%],human recombinant TPH1; 300 nM,91.38%
same,Mean TPH1 activity [%],human recombinant TPH1; 1 μM,12.20%
same,Mean TPH1 activity [%],human recombinant TPH1; 3 μM,4.78%
same,Mean TPH1 activity [%],human recombinant TPH1; 10 μM,5.34%
same,Mean TPH2 activity [%],human recombinant TPH2; 3 nM,99.93%
same,Mean TPH2 activity [%],human recombinant TPH2; 10 nM,100.78%
same,Mean TPH2 activity [%],human recombinant TPH2; 30 nM,99.88%
same,Mean TPH2 activity [%],human recombinant TPH2; 100 nM,97.93%
same,Mean TPH2 activity [%],human recombinant TPH2; 300 nM,92.18%
same,Mean TPH2 activity [%],human recombinant TPH2; 1 μM,10.61%
same,Mean TPH2 activity [%],human recombinant TPH2; 3 μM,3.90%
same,Mean TPH2 activity [%],human recombinant TPH2; 10 μM,3.17%
same,Mean PAH activity [%],human recombinant PAH; 10 nM,99.68%
same,pIC50,human recombinant PAH; [2],5.57
same,Mean PAH activity [%],human recombinant PAH; 30 nM,96.34%
same,Mean PAH activity [%],human recombinant PAH; 100 nM,95.74%
same,Mean PAH activity [%],human recombinant PAH; 300 nM,92.85%
same,Mean PAH activity [%],human recombinant PAH; 1 μM,79.01%
same,Mean PAH activity [%],human recombinant PAH; 3 μM,42.58%
same,Mean PAH activity [%],human recombinant PAH; 10 μM,18.22%
same,Mean PAH activity [%],human recombinant PAH; 30 μM,7.18%
same,pIC50,human recombinant PAH; supplementary CSV,5.57
same,Mean TH activity [%],recombinant human TH; 10 nM,91.23%
same,pIC50,"recombinant human TH; 10 nM to 30 μM, 30 μM L-Tyr, 5 μM BH4",5.09
same,Mean TH activity [%],recombinant human TH; 30 nM,96.35%
same,Mean TH activity [%],recombinant human TH; 100 nM,91.73%
same,Mean TH activity [%],recombinant human TH; 300 nM,96.86%
same,Mean TH activity [%],recombinant human TH; 1 μM,89.03%
same,Mean TH activity [%],recombinant human TH; 3 μM,79.57%
same,Mean TH activity [%],recombinant human TH; 10 μM,43.11%
same,Mean TH activity [%],recombinant human TH; 30 μM,14.34%
same,inhibition at A3 receptor,A3 receptor,more than 50%
same,inhibition at 5-HT1B receptor,5-HT1B receptor,more than 50%
same,inhibition at 5-HT2A receptor,5-HT2A receptor,more than 50%
